Source: patent US8337896B2, “Drug-containing nanoparticles” (Kyushu University, National University Corporation, priority 2007, dated 2012)
Structures can show the parent of a compound that is named as a salt.

Legend:
[1] = test system: mouse vascular injury model; assay: Neointimal formation suppressive effect in mouse vascular injury model; format: in vivo; settings: high dose systemic administration: single intraperitoneal, 28 days after wire injury
Method: Using the pioglitazone-containing nanoparticles obtained in Example 1, the neointimal formation suppressive effect in mouse vascular injury model was tested. […] The both ends of the blood vessel were ligated with a 6-0 silk thread to temporarily shut off the blood flow. The branch was incised, and a wire (diameter […], No. C—SF-15-15, COOK) was inserted by 5 mm in the iliac artery side to injure the blood vessel. After wire injury, the experimental animals were divided into a solvent control group and pioglitazone-containing nanoparticle group. The wire was removed, 100 μl, each of a solvent and a pioglitazone-containing PLGA nanoparticle solution was intraarterially administered from the branch over 5 min. The solvent control group was administered with the solvent (phosphate buffered saline) alone only once. The pioglitazone-containing nanoparticle group was administered with the pioglitazone-containing PLGA nanoparticles obtained in Example 1 (containing 0.5 mg/mouse as nanoparticles, corresponding to pioglitazone concentration of 0.015 mg/mouse (0.5 mg/kg body weight)) once. After administration, the branch part was ligated, the blood flow was resumed and the skin was sutured. Immediately after the wire injury, a high dose (10-fold amount of clinical dose) pioglitazone hydrochloride (0.15 mg/mouse (5 mg/kg body weight) as pioglitazone) single time intraperitoneal administration group was formed. At 28 days after vascular injury, the right femoral artery was washed and fixed with phosphate buffered saline and neutral buffered formalin via the heart, and isolated. A paraffin section was prepared and stained with Elastica van Gieson, proliferating cell nuclear antigen (PCNA) was immunohistochemically stained, and evaluated for the intima/media ratio, neointimal area, medial area and cell proliferation. For immunohistochemical staining, the proliferated cells were counted and the ratio of thereof to the total cell number was calculated.

[2] = test system: Rat aortic smooth muscle cells; assay: Delivery and retention of nanoparticles in cultured rat smooth muscle cells; format: cell-based; settings: medium containing FITC alone
Method: Using the FITC-containing nanoparticles prepared in Experimental Example 3 (1), deliver and retention tests in cultured rat […] smooth muscle cell were performed.
Rat aortic smooth muscle cells (obtained from TOYOBO) were plated on a slide glass chamber to a subconfluent cell density in DMEM medium (Sigma) containing 10% fetal bovine serum (day 0). On day 2, the medium was changed to a medium containing FITC or FITC-containing nanoparticles (0.5 mg/mL in nanoparticles concentration).
At 5 min and 24 hr after medium exchange, the cells were fixed with methanol, the nucleus was stained with Propidium iodide (Vector laboratories, Inc.), and subjected to fluorescence microscope observation. The total number of nuclei and fluorescence positive cells were counted for each field of view, and the ratio of fluorescence positive cells was calculated.

| Molecule | Intima/media ratio ([1]; 0.15 mg/mouse (5 mg/kg) as pioglitazone) | Medial area (μm^2) ([1]; 5 mg/kg as pioglitazone) | Neointimal area (μm^2) ([1]; 5 mg/kg as pioglitazone) | Ratio of fluorescence positive cells [2] [%] |
| --- | --- | --- | --- | --- |
| CCc1ccc(CCOc2ccc(CC3SC(=O)NC3=O)cc2)nc1 (stereo not shown) [Pioglitazone, pioglitazone hydrochloride] | 2.3 ± 1.2 | 14904 ± 2107 | 23656 ± 8982 | – |
| fluorescein isothiocyanate [FITC] | – | – | – | 0 |
